Assays:
Mus musculus [1] = assay: Anticonvulsant activity in mouse assessed as delay of death time at 150 mg/kg, ip administered 20 mins prior to PTZ challenge relative to control; assay type: functional; settings: route intraperitoneal
Mus musculus [2] = assay: Anticonvulsant activity in mouse assessed as prolongation of convulsions onset time at 150 mg/kg, ip administered 20 mins prior to PTZ challenge relative to control; assay type: functional; settings: route intraperitoneal
Mus musculus [3] = assay: Anticonvulsant activity in mouse assessed as decrease in convulsion frequency at 150 mg/kg, ip administered 20 mins prior to PTZ challenge relative to control; assay type: functional; set-up: scale not given: the % may be the effect or the level left; settings: route intraperitoneal
Mus musculus [4] = assay: Anticonvulsant activity in mouse assessed as decrease in convulsion frequency at 150 mg/kg, ip administered 20 mins prior to picrotoxin challenge relative to control; assay type: functional; set-up: scale not given: the % may be the effect or the level left; settings: route intraperitoneal
Mus musculus [5] = assay: Anticonvulsant activity in mouse assessed as delay of death time at 150 mg/kg, ip administered 20 mins prior to picrotoxin challenge relative to control; assay type: functional; settings: route intraperitoneal
Mus musculus [6] = assay: Anticonvulsant activity in mouse assessed as prolongation of convulsions onset time at 150 mg/kg, ip administered 20 mins prior to picrotoxin challenge relative to control; assay type: functional; settings: route intraperitoneal
Mus musculus [7] = assay: Anticonvulsant activity in mouse assessed as delay of death time at 50 mg/kg, ip administered 20 mins prior to PTZ challenge relative to control; assay type: functional; settings: route intraperitoneal
Mus musculus [8] = assay: Anticonvulsant activity in mouse assessed as decrease in convulsion frequency at 50 mg/kg, ip administered 20 mins prior to PTZ challenge relative to control; assay type: functional; set-up: scale not given: the % may be the effect or the level left; settings: route intraperitoneal
[9] = Therapeutic index, ratio of LD50 for mouse to ED50 for anticonvulsant activity in mouse; assay type: organism-based; settings: in vivo, read-out: Ratio LD50/ED50
Mus musculus [10] = species on record: Mus musculus; assay: Protective index, ratio of TD50 for mouse to ED50 for anticonvulsant activity in mouse
Mus musculus [11] = assay: Anticonvulsant activity in mouse assessed as prolongation of convulsions onset time at 50 mg/kg, ip administered 20 mins prior to PTZ challenge relative to control; assay type: functional; settings: route intraperitoneal
Mus musculus [12] = assay: Anticonvulsant activity in mouse assessed as protection against PTZ-induced convulsions at 50 mg/kg, ip administered 20 mins prior to PTZ challenge relative to control; assay type: functional; settings: route intraperitoneal
Mus musculus [13] = assay: Anticonvulsant activity in mouse assessed as protection against PTZ-induced convulsions at 150 mg/kg, ip administered 20 mins prior to PTZ challenge relative to control; assay type: functional; settings: route intraperitoneal
Mus musculus [14] = assay: Toxicity in mouse at 150 mg/kg, […] 20 mins prior to PTZ challenge relative to control; assay type: organism-based; set-up: dose 150 mg/kg; settings: in vivo

`CCCCC(=O)NNC(=O)CSc1nc2ccc(Cl)cc2c(=O)n1-c1ccccc1` gave an Activity (Mus musculus [1]) of 47%, an Activity (Mus musculus [2]) of 114% and an Activity (Mus musculus [3]) of 87%.

Work on `CSc1nc2ccc(Cl)cc2c(=O)n1-c1ccccc1` yielded an Activity (Mus musculus [1]) of 44%, an Activity (Mus musculus [2]) of 114% and an Activity (Mus musculus [3]) of 0%.

Work on `COc1cc2nc(SC)n(-c3ccccc3)c(=O)c2cc1OC` yielded an Activity (Mus musculus [1]) of 461%, an Activity (Mus musculus [2]) of 35% and an Activity (Mus musculus [3]) of 0%.

`CSc1nc2ccc(Cl)cc2c(=O)n1Cc1ccccc1` gave an Activity (Mus musculus [1]) of 5%, an Activity (Mus musculus [4]) of 91% and an Activity (Mus musculus [5]) of 0%. The Activity (Mus musculus [6]) was 36%, the Activity (Mus musculus [2]) was 114% and the Activity (Mus musculus [3]) was 61%.

For `CCOC(=O)CSc1nc2ccc(Cl)cc2c(=O)n1-c1ccccc1`, the Activity (Mus musculus [2]) was 0% and the Activity (Mus musculus [3]) was 0%.

With `CCOC(=O)CSc1nc2ccc(Cl)cc2c(=O)n1Cc1ccccc1` the Activity (Mus musculus [4]) was 25%, the Activity (Mus musculus [5]) was 17% and the Activity (Mus musculus [6]) was 5%. The Activity (Mus musculus [2]) was 0% and the Activity (Mus musculus [3]) was 0%.

Compound `O=C(CSc1nc2ccc(Cl)cc2c(=O)n1-c1ccccc1)NNC(=S)NCc1ccccc1` has an Activity (Mus musculus [1]) of 145%, an Activity (Mus musculus [2]) of 114% and an Activity (Mus musculus [3]) of 0%.

With `O=C(CSc1nc2ccc(Cl)cc2c(=O)n1Cc1ccccc1)NNC(=S)Nc1ccccc1` the Activity (Mus musculus [2]) was 0% and the Activity (Mus musculus [3]) was 0%.

`O=C(CSc1nc2ccc(Cl)cc2c(=O)n1Cc1ccccc1)NNC(=S)NCc1ccccc1` gave an Activity (Mus musculus [1]) of 101%, an Activity (Mus musculus [4]) of 39% and an Activity (Mus musculus [5]) of 25%. It also gave an Activity (Mus musculus [6]) of 15%, an Activity (Mus musculus [2]) of 471% and an Activity (Mus musculus [3]) of 61%.

Work on `COc1cc2nc(SCC(=O)NNC(=S)Nc3ccccc3)n(Cc3ccccc3)c(=O)c2cc1OC` yielded an Activity (Mus musculus [1]) of 5%, an Activity (Mus musculus [4]) of 89% and an Activity (Mus musculus [5]) of 25%. For the same compound, the Activity (Mus musculus [6]) was 4%, the Activity (Mus musculus [2]) was 150% and the Activity (Mus musculus [3]) was 81%.

For `COc1cc2nc(SCC(=O)NNC(=S)NCc3ccccc3)n(Cc3ccccc3)c(=O)c2cc1OC`, the Activity (Mus musculus [1]) was 32%, the Activity (Mus musculus [4]) was 66% and the Activity (Mus musculus [5]) was 22%. The Activity (Mus musculus [6]) was 78%, the Activity (Mus musculus [2]) was 43% and the Activity (Mus musculus [3]) was 38%.

With `Cc1ccc(S(=O)(=O)NNC(=O)CSc2nc3ccc(Cl)cc3c(=O)n2-c2ccccc2)cc1` the Activity (Mus musculus [1]) was 40%, the Activity (Mus musculus [2]) was 43% and the Activity (Mus musculus [3]) was 48%.

For `Cc1ccc(S(=O)(=O)NNC(=O)CSc2nc3ccc(Cl)cc3c(=O)n2Cc2ccccc2)cc1`, the Activity (Mus musculus [1]) was 47%, the Activity (Mus musculus [2]) was 43% and the Activity (Mus musculus [3]) was 74%.

`COc1cc2nc(SCC(=O)NNS(=O)(=O)c3ccc(C)cc3)n(Cc3ccccc3)c(=O)c2cc1OC` showed an Activity (Mus musculus [2]) of 43% and an Activity (Mus musculus [3]) of 0%.

In the case of `CC(=O)NNC(=O)CSc1nc2ccc(Cl)cc2c(=O)n1-c1ccccc1`, the Activity (Mus musculus [1]) was 216%, the Activity (Mus musculus [2]) was 186% and the Activity (Mus musculus [3]) was 48%.

Work on `CCC(=O)NNC(=O)CSc1nc2ccc(Cl)cc2c(=O)n1-c1ccccc1` yielded an Activity (Mus musculus [7]) of 636%, an Activity (Mus musculus [8]) of 74% and a selectivity ratio [9] of 24.6. The “Ratio TD50/ED50” value (Mus musculus [10]) was 8.5, the Activity (Mus musculus [11]) was 1471% and the Activity (Mus musculus [12]) was 100%.

In the case of `CCCC(=O)NNC(=O)CSc1nc2ccc(Cl)cc2c(=O)n1-c1ccccc1`, the Activity (Mus musculus [1]) was 75%, the Activity (Mus musculus [2]) was 43% and the Activity (Mus musculus [3]) was 82%.

Work on `O=C(CSc1nc2ccc(Cl)cc2c(=O)n1-c1ccccc1)NNC(=O)c1ccccc1` yielded an Activity (Mus musculus [1]) of 0%, an Activity (Mus musculus [2]) of 114% and an Activity (Mus musculus [3]) of 87%.

With `O=C(CSc1nc2ccc(Cl)cc2c(=O)n1-c1ccccc1)NNC(=O)Cc1ccccc1` the Activity (Mus musculus [8]) was 0% and the Activity (Mus musculus [11]) was 43%.

In the case of `O=C(CCc1ccccc1)NNC(=O)CSc1nc2ccc(Cl)cc2c(=O)n1-c1ccccc1`, the Activity (Mus musculus [2]) was 43% and the Activity (Mus musculus [3]) was 0%.

Compound `CC(=O)NNC(=O)CSc1nc2ccc(Cl)cc2c(=O)n1Cc1ccccc1` has an Activity (Mus musculus [1]) of 303%, an Activity (Mus musculus [4]) of 60% and an Activity (Mus musculus [5]) of 50%. The selectivity ratio [9] was 9.7, the Activity (Mus musculus [6]) was 63% and the “Ratio TD50/ED50” value (Mus musculus [10]) was 8.7. It also gave an Activity (Mus musculus [13]) of 100%.

`CCC(=O)NNC(=O)CSc1nc2ccc(Cl)cc2c(=O)n1Cc1ccccc1` gave an Activity (Mus musculus [1]) of 0%, an Activity (Mus musculus [2]) of 43% and an Activity (Mus musculus [3]) of 74%.

`CCCC(=O)NNC(=O)CSc1nc2ccc(Cl)cc2c(=O)n1Cc1ccccc1` gave an Activity (Mus musculus [1]) of 14%, an Activity (Mus musculus [6]) of 0% and an Activity (Mus musculus [2]) of 78%. It also gave an Activity (Mus musculus [3]) of 61%.

Work on `CCCCC(=O)NNC(=O)CSc1nc2ccc(Cl)cc2c(=O)n1Cc1ccccc1` yielded an Activity (Mus musculus [2]) of 0% and an Activity (Mus musculus [3]) of 0%.

`COc1cc2nc(SCC(=O)NNC(C)=O)n(Cc3ccccc3)c(=O)c2cc1OC` showed an Activity (Mus musculus [2]) of 0% and an Activity (Mus musculus [3]) of 0%.

For `CCC(=O)NNC(=O)CSc1nc2cc(OC)c(OC)cc2c(=O)n1Cc1ccccc1`, the Activity (Mus musculus [1]) was 216%, the Activity (Mus musculus [4]) was 79% and the Activity (Mus musculus [5]) was 8%. For the same compound, the selectivity ratio [9] was 5.1, the Activity (Mus musculus [6]) was 11% and the “Ratio TD50/ED50” value (Mus musculus [10]) was 4.1. The Activity (Mus musculus [13]) was 100%, the Activity (Mus musculus [2]) was 471% and the Activity (Mus musculus [3]) was 81%.

Work on `CCCC(=O)NNC(=O)CSc1nc2cc(OC)c(OC)cc2c(=O)n1Cc1ccccc1` yielded an Activity (Mus musculus [1]) of 58%, an Activity (Mus musculus [2]) of 114% and an Activity (Mus musculus [3]) of 0%.

`CCCCC(=O)NNC(=O)CSc1nc2cc(OC)c(OC)cc2c(=O)n1Cc1ccccc1` showed an Activity (Mus musculus [2]) of 0% and an Activity (Mus musculus [3]) of 0%.

In the case of `O=C(CSc1nc2ccc(Cl)cc2c(=O)n1Cc1ccccc1)NNC(=O)c1ccccc1`, the Activity (Mus musculus [1]) was 75%, the Activity (Mus musculus [2]) was 185% and the Activity (Mus musculus [3]) was 23%.

Work on `O=C(CSc1nc2ccc(Cl)cc2c(=O)n1Cc1ccccc1)NNC(=O)Cc1ccccc1` yielded an Activity (Mus musculus [1]) of 47%, an Activity (Mus musculus [2]) of 43% and an Activity (Mus musculus [3]) of 61%.

With `O=C(CCc1ccccc1)NNC(=O)CSc1nc2ccc(Cl)cc2c(=O)n1Cc1ccccc1` the Activity (Mus musculus [1]) was 254%, the selectivity ratio [9] was 9.8 and the “Ratio TD50/ED50” value (Mus musculus [10]) was 4.6. For the same compound, the Activity (Mus musculus [13]) was 100%, the Activity (Mus musculus [2]) was 685% and the Activity (Mus musculus [3]) was 74%.

In the case of `COc1cc2nc(SCC(=O)NNC(=O)c3ccccc3)n(Cc3ccccc3)c(=O)c2cc1OC`, the Activity (Mus musculus [2]) was 0% and the Activity (Mus musculus [3]) was 0%.

In the case of `COc1cc2nc(SCC(=O)NNC(=O)Cc3ccccc3)n(Cc3ccccc3)c(=O)c2cc1OC`, the Activity (Mus musculus [1]) was 58%, the Activity (Mus musculus [4]) was 97% and the Activity (Mus musculus [5]) was 17%. The Activity (Mus musculus [6]) was 18%, the Activity (Mus musculus [2]) was 186% and the Activity (Mus musculus [3]) was 68%.

With `COc1cc2nc(SCC(=O)NNC(=O)CCc3ccccc3)n(Cc3ccccc3)c(=O)c2cc1OC` the Activity (Mus musculus [1]) was 0%, the Activity (Mus musculus [2]) was 114% and the Activity (Mus musculus [3]) was 81%.

In the case of `COc1cc2nc(SC)n(Cc3ccccc3)c(=O)c2cc1OC`, the Activity (Mus musculus [14]) was “Toxic”.

`CCCC(CCC)C(=O)[O-].[Na+]` [VALPROATE SODIUM] gave an Activity (Mus musculus [12]) of 100%.

Reference: ChEMBL document CHEMBL3400058, “Synthesis, anticonvulsant activity and molecular modeling study of some new hydrazinecarbothioamide, benzenesulfonohydrazide, and phenacylacetohydrazide analogues of 4(3H)-quinazolinone” (Bioorg Med Chem Lett, 2015)
